According to patent US20130337564A1, “Treatment of Pluripotent Cells” (Janssen Biotech, Inc., priority 2012, published 2013):

Legend:
Type in all cases: cell-based
[1] = system: human embryonic stem cells (H9 line); assay: High content screening assay: cell number (proliferative response)
Outline: (§1)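 H9 hESCs on MATRIGEL treated days 1-2 with 10 μM compound in DMEM:F12, 0.5% FCS, 100 ng/ml activin A; days 3-4 with 2% FCS plus activin A without compound. Fixed cells immunostained for Sox17 or HNF-3beta with Draq5 nuclear counterstain. Cell number and staining intensity quantified by high-content imaging, 12 fields/well.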

[2] = system: Sox17 expression in human embryonic stem cells (H9 line); assay: High content screening assay: Sox17 protein expression (differentiation)
Outline: as §1

[3] = system: HNF-3beta expression in human embryonic stem cells (H9 line); assay: High content screening assay: HNF-3beta protein expression (differentiation); settings: total intensity
Outline: as §1

[4] = system: human embryonic stem cells (H9 or H1 lines); assay: Plate reader (MTS) proliferation assay; settings: for activity at 10 µM: Homo sapiens, Embryonic stem cell, 96 h, 10 μM test compound with 100 ng/ml activin A on days 1-2, MTS OD490 on day 4, vs Activin A/Wnt3a positive control, strong and moderate hits; for Average: average of replicate raw data
Outline: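 H9 or H1 cells on Matrigel, washed, then given DMEM:F12 with 0.5% FCS, 100 ng/ml activin A and 10 μM compound (days 1–2), then 2% FCS plus activin A (days 3–4). MTS added day 4, OD490 read after 1.5–4 h at 37 °C; triplicates as percent of activin A/Wnt3a control.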

[5] = cell number in the wells analysed for HNF-3b expression
[6] = cell number in the wells analysed for SOX-17 expression

Row | Compound | Proliferative Response Total cells [1, 5] | Proliferative Response Total cells [1, 6] | SOX-17 Expression Total Intensity [2] | HNF-3b Expression Total Intensity [3] | activity at 10 µM [4] [%] | Average [4] | fold induction at 10 µM ([1]; Homo sapiens, Embryonic stem cell, 10 μM test compound with 100 ng/ml activin A on days 1-2, H9, total cell number by IN Cell Analyzer, strong and moderate hits, read-out: Proliferative Response, Fold over Wnt 3a/AA control) | fold induction at 10 µM ([2]; Homo sapiens, Embryonic stem cell, 10 μM test compound with 100 ng/ml activin A on days 1-2, H9, total intensity by IN Cell Analyzer, strong and moderate hits, read-out: SOX17 Expression, Fold over Wnt 3a/AA control)
1 | O=C1NC(=O)C(c2cn(CCOCCOCCNC3CCCc4ccccc43)c3ccccc23)=C1c1cn(CCNC2CCCc3ccccc32)c2ccccc12 (centres unmarked) [Compound 144, 3-{1-[2-(1,2,3,4-Tetrahydronaphthalen-1-ylamino)ethyl]-1H-indol-3-yl}-4-(1-{2-[(2-{[2-(1,2,3,4-tetrahydronaphthalen-1-ylamino)ethyl]oxy}ethyl)oxy]ethyl}-1H-indol-3-yl)-1H-pyrrole-2,5-dione] | 6833 | 7990 | 339840000 | 231745000 | 84 | 1.2160 |  | 
2 | CN(C)c1cccc(-n2cc(C3=C(c4nn(CCO)c5ccccc45)C(=O)NC3=O)c3ccccc32)c1 [Compound 145, 3-{1-[3-(Dimethylamino)phenyl]-1H-indol-3-yl}-4-[1-(2-hydroxyethyl)-1H-indazol-3-yl]-1H-pyrrole-2,5-dione] | 2907 | 4914 | 238555000 | 82808745 | 61.1 | 0.9191 |  | 
3 | CN(C)c1ccc(-n2cc(C3=C(c4nn(CCO)c5ccccc45)C(=O)NC3=O)c3cc(Cl)ccc32)cn1 [Compound 148, 3-{5-Chloro-1-[6-(dimethylamino)pyridin-3-yl]-1H-indol-3-yl}-4-[1-(2-hydroxyethyl)-1H-indazol-3-yl]-1H-pyrrole-2,5-dione] | 6536 | 12243 | 699160000 | 248855000 | 106 | 1.4937 | 0.799 | 0.719
4 | COC(=O)c1cncc(-n2cc(C3=C(c4nn(CCO)c5ccccc45)C(=O)NC3=O)c3cc(Cl)ccc32)c1 [Compound 150, Methyl 5-(5-chloro-3-{4-[1-(2-hydroxyethyl)-1H-indazol-3-yl]-2,5-dioxo-2,5-dihydro-1H-pyrrol-3-yl}-1H-indol-1-yl)pyridine-3-carboxylate] | 6992 | 7958 | 351070000 | 288075000 | 63.3 | 0.9475 |  | 
5 | OCCC#Cc1nc(-c2ccc(F)cc2)c(-c2ccncc2)n1CCCc1ccccc1 [Compound 158, 4-[4-(4-Fluorophenyl)-1-(3-phenylpropyl)-5-pyridin-4-yl-1H-imidazol-2-yl]but-3-yn-1-ol] | 6058 | 6376 | 324450000 | 269025000 | 84.7 | 1.2242 |  | 
